Measured values taken from patent US20230114728A1 (Venatorx Pharmaceuticals, Inc., priority 2019, published 2023).
In brackets after ≈: the same amount, converted by molar mass.

Assays:
Assay in all cases: Broth microdilution MIC in CAMHB
Type in all cases: cell-based
P. aeruginosa ATCC 35151 = settings: Pseudomonas aeruginosa, ATCC35151; MHB; hyper-permeable strain; read-out: Minimum Inhibitory Concentration, P. aeruginosa ATCC 35151
How it was run: (§1)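 Per CLSI broth microdilution, colonies were grown 3-5 h at 37° C in cation-adjusted Mueller Hinton broth, then diluted to a starting inoculum of 2-8×10^5 CFU/mL against 2-fold serial compound dilutions. Plates were incubated 16-20 h at 37° C, and MIC was read visually as the lowest concentration with no growth.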

E. coli ATCC 25922 = settings: Escherichia coli, ATCC25922; E. coli ATCC 25922; MHB; read-out: Minimum Inhibitory Concentration, E. coli 25922
How it was run: as §1

[1] = tested on: K. pneumoniae SI-117 producing VIM-1; settings: Klebsiella pneumoniae, read-out: Minimum Inhibitory Concentration, K. pneumoniae SI-117
How it was run: as §1

E. coli AG100A = settings: Escherichia coli, read-out: Minimum Inhibitory Concentration, E. coli AG100A
How it was run: as §1

P. aeruginosa ATCC 27853 = settings: Pseudomonas aeruginosa, ATCC27853; MHB; read-out: Minimum Inhibitory Concentration, P. aeruginosa ATCC 27853
How it was run: as §1

E. coli AG100 = settings: Escherichia coli; E. coli AG100 (wild-type parent); MHB; read-out: Minimum Inhibitory Concentration, E. coli AG100
How it was run: as §1

[2] = tested on: K. pneumoniae 848844 producing SHV-11 and KPC-2; settings: Klebsiella pneumoniae, read-out: Minimum Inhibitory Concentration, K. pneumoniae 848844
How it was run: as §1

[3] = tested on: P. aeruginosa (ΔmexAB-oprM); settings: Pseudomonas aeruginosa, read-out: Minimum Inhibitory Concentration, P. aeruginosa ΔmexAB-OprM
How it was run: as §1

[4] = tested on: K. pneumoniae UMM producing SHV-5 and KPC-2; settings: Klebsiella pneumoniae, read-out: Minimum Inhibitory Concentration, K. pneumoniae UMM
How it was run: as §1

E. coli 901C = settings: Escherichia coli; E. coli 901C (hyper-permeable); MHB; read-out: Minimum Inhibitory Concentration, E. coli 901C
How it was run: as §1

E. coli D22 = settings: Escherichia coli; E. coli D22 (hyper-permeable); MHB; read-out: Minimum Inhibitory Concentration, E. coli D22
How it was run: as §1

A. baumannii ATCC 19606 = settings: Acinetobacter baumannii, ATCC19606; MHB; read-out: Minimum Inhibitory Concentration, A. baumannii ATCC 19606
How it was run: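 Colonies from cation-adjusted Mueller Hinton agar are grown in broth (3-5 h, 37° C), adjusted by OD600, and added at 2-8×10^5 CFU/mL to 2-fold compound dilutions. After 16-20 h at 37° C, the lowest concentration without growth is taken as MIC.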

Row | SMILES | MIC (P. aeruginosa ATCC 35151) | MIC (E. coli ATCC 25922) | MIC [1] | MIC (E. coli AG100A) | MIC (P. aeruginosa ATCC 27853) | MIC (E. coli AG100) | MIC [2] | MIC [3] | MIC [4] | MIC (E. coli 901C) | MIC (E. coli D22) | MIC (A. baumannii ATCC 19606)
1 | CCN1CCN(C(=O)NC(C(=O)N[C@H]2Cc3cccc(C(=O)O)c3OB2O)c2cc(O)cc(O)c2)C(=O)C1=O (mixture of isomers) [Example 79, (3R)-3-(2-(3,5-dihydroxyphenyl)-2-(4-ethyl-2,3-dioxopiperazine-1-carboxamido)acetamido)-2-hydroxy-3,4-dihydro-2H-benzo[e][1,2]oxaborinine-8-carboxylic acid] | 0.5 to 1 µg/mL | 8 to 16 µg/mL | 32 to 64 µg/mL | 2 to 4 µg/mL | > 128 µg/mL | 8 to 16 µg/mL | 32 to 64 µg/mL | 2 to 4 µg/mL | 8 to 16 µg/mL | < 0.25 µg/mL | 2 to 4 µg/mL | > 128 µg/mL
2 | CCN1CCN(C(=O)N[C@H](C(=O)N[C@H]2Cc3cccc(C(=O)O)c3OB2O)c2cc(O)cc(O)c2)C(=O)C1=O (single isomer, unassigned) [Example 81] | 2 to 4 µg/mL (≈ 3.7 to 7.4 µM) | 32 to 64 µg/mL (≈ 59.2 to 118 µM) | > 128 µg/mL | 8 to 16 µg/mL (≈ 14.8 to 29.6 µM) | > 128 µg/mL | 32 to 64 µg/mL (≈ 59.2 to 118 µM) | > 128 µg/mL | 32 to 64 µg/mL (≈ 59.2 to 118 µM) | > 128 µg/mL | 0.5 to 1 µg/mL (≈ 0.925 to 1.85 µM) | 8 to 16 µg/mL (≈ 14.8 to 29.6 µM) | > 128 µg/mL
3 | CCN1CCN(C(=O)N[C@@H](C(=O)N[C@H]2Cc3cccc(C(=O)O)c3OB2O)c2cc(O)cc(O)c2)C(=O)C1=O (single isomer, unassigned) [Example 82] | < 0.25 µg/mL | 32 to 64 µg/mL (≈ 59.2 to 118 µM) | 32 to 64 µg/mL (≈ 59.2 to 118 µM) | 2 to 4 µg/mL (≈ 3.7 to 7.4 µM) | > 128 µg/mL | 8 to 16 µg/mL (≈ 14.8 to 29.6 µM) | > 128 µg/mL | 32 to 64 µg/mL (≈ 59.2 to 118 µM) | 32 to 64 µg/mL (≈ 59.2 to 118 µM) | < 0.25 µg/mL | 2 to 4 µg/mL (≈ 3.7 to 7.4 µM) | 32 to 64 µg/mL (≈ 59.2 to 118 µM)
4 | NCCN1CCN(C(=O)N[C@H](C(=O)N[C@H]2Cc3cccc(C(=O)O)c3OB2O)c2ccc(C(=O)O)cc2)C(=O)C1=O (single isomer, unassigned) [Example 83] | 0.5 to 1 µg/mL (≈ 0.881 to 1.76 µM) | 32 to 64 µg/mL (≈ 56.4 to 113 µM) | > 128 µg/mL | 8 to 16 µg/mL (≈ 14.1 to 28.2 µM) | 32 to 64 µg/mL (≈ 56.4 to 113 µM) | 32 to 64 µg/mL (≈ 56.4 to 113 µM) | > 128 µg/mL | 8 to 16 µg/mL (≈ 14.1 to 28.2 µM) | 32 to 64 µg/mL (≈ 56.4 to 113 µM) | < 0.25 µg/mL | 2 to 4 µg/mL (≈ 3.53 to 7.05 µM) | > 128 µg/mL
5 | NCCN1CCN(C(=O)N[C@@H](C(=O)N[C@H]2Cc3cccc(C(=O)O)c3OB2O)c2ccc(C(=O)O)cc2)C(=O)C1=O (single isomer, unassigned) [Example 84] | 0.5 to 1 µg/mL (≈ 0.881 to 1.76 µM) | 8 to 16 µg/mL (≈ 14.1 to 28.2 µM) | > 128 µg/mL | 2 to 4 µg/mL (≈ 3.53 to 7.05 µM) | 32 to 64 µg/mL (≈ 56.4 to 113 µM) | 8 to 16 µg/mL (≈ 14.1 to 28.2 µM) | 32 to 64 µg/mL (≈ 56.4 to 113 µM) | 8 to 16 µg/mL (≈ 14.1 to 28.2 µM) | 8 to 16 µg/mL (≈ 14.1 to 28.2 µM) | 0.5 to 1 µg/mL (≈ 0.881 to 1.76 µM) | 2 to 4 µg/mL (≈ 3.53 to 7.05 µM) | > 128 µg/mL
6 | NCCN1CCN(C(=O)N[C@H](C(=O)N[C@H]2Cc3cccc(C(=O)O)c3OB2O)c2ccc(O)cc2Cl)C(=O)C1=O (single isomer, unassigned) [Example 85] | 2 to 4 µg/mL (≈ 3.49 to 6.97 µM) | > 128 µg/mL | > 128 µg/mL | 32 to 64 µg/mL (≈ 55.8 to 112 µM) | > 128 µg/mL | > 128 µg/mL | > 128 µg/mL | 32 to 64 µg/mL (≈ 55.8 to 112 µM) | > 128 µg/mL | 8 to 16 µg/mL (≈ 13.9 to 27.9 µM) | 32 to 64 µg/mL (≈ 55.8 to 112 µM) | > 128 µg/mL
7 | O=C(O)c1ccc(C(NC(=O)N2CCN(CCNC(=O)c3ccc(O)c(O)c3Cl)C(=O)C2=O)C(=O)N[C@H]2Cc3ccc(F)c(C(=O)O)c3OB2O)cc1F (stereo partly drawn) [Example 11, (3R)-3-(2-(4-carboxy-3-fluorophenyl)-2-(4-(2-(2-chloro-3,4-dihydroxybenzamido)ethyl)-2,3-dioxopiperazine-1-carboxamido)acetamido)-7-fluoro-2-hydroxy-3,4-dihydro-2H-benzo[e][1,2]oxaborinine-8-carboxylic acid] | – | 32 to 64 µg/mL (≈ 41.4 to 82.7 µM) | 32 to 64 µg/mL (≈ 41.4 to 82.7 µM) | 2 to 4 µg/mL (≈ 2.58 to 5.17 µM) | – | 32 to 64 µg/mL (≈ 41.4 to 82.7 µM) | > 128 µg/mL | – | 2 to 4 µg/mL (≈ 2.58 to 5.17 µM) | 0.5 to 1 µg/mL (≈ 0.646 to 1.29 µM) | 8 to 16 µg/mL (≈ 10.3 to 20.7 µM) | –
